Test: Stability of oxaliplatin in hydration solution (UV, absorbance at 254 nm)
Type: physicochemical
Description: Oxaliplatin was dissolved in a hydration solution containing 10% sucrose and 1 mM Calcium gluconate (10 mg/ml). Sucrose was added to obtain an osmolarity approximately corresponding to physiological salt concentration. Stability of oxaliplatin in the hydration solution was followed by UV measurement. Samples were taken continually during storage at room temperature. Sample concentration measured was 0.1 mg/ml oxaliplatin. In order to follow the oxaliplatin stability a scan was performed from 200-350 nm (FIG. 1) and the absorbance at 254 nm was compared during storage (FIG. 2). Major changes in absorbance at 254 nm are usually related to oxaliplatin decomposition, which can easily be observed by dissolving oxaliplatin in solutions containing hydroxide and/or chloride ions.

For `O=C1[O][Pt]2([NH][C@@H]3CCCC[C@H]3[NH]2)[O]C1=O` [Oxaliplatin, oxaliplatin], the “decomposition during storage (absorbance at 254 nm)” value (10% sucrose solution containing 1 mM calcium gluconate, room temperature, at least 35 days) was “practically no decomposition” and the “absorbance at 254 nm with common buffer components” value (phosphate, citrate, acetate, ethanolamine (data not shown)) was “decrease the absorbance at 254 nm”.

Reference: US11173178B2, “Liposomes for drug delivery and methods for preparation thereof” (priority 2008, dated 2021)
